Data on two compounds can be found in patent publication EP0617046A1, “Nucleoside derivatives and antiherpes composition” (NIPPON CHEMIPHAR CO., LTD., priority 1993, dated 1994).

For data set [1], the system named is herpes simplex virus (HSV) type 2. The note with it: cited from earlier work.
In data set [2] the test system is herpes simplex virus (HSV) type 1. The following applies: cited from earlier work.
In the next data set the test system is cytomegalovirus (CMV). The note with it: CMV having no thymidine kinase (TK); Clinic and Study, vol. 70, No.8 (1993); cited from earlier work.
In a further data set the test system is TK⁺VZV OKA strain. Put plainly: Assay for antiviral activity (plaque formation in HEL cells). It counts as cell-based, Varicella-zoster virus (VZV). The note with it: Human alphaherpesvirus 3, HEL, 120 h, read-out: Antiviral Activity IC₅₀ (µg/mL). On the procedure:
(§1) The nucleoside derivative of the invention is further examined in antivairal activity to varicella-zoster virus (VZV) and cytotoxicity by the following tests.
(§2) Human embryonic lung fibroblast (HEL cell, ATCC CCL-137)
(§3) Culture: The cell is cultured in a minimum essential medium (MEM, Gibco) supplemented with 10% inactivated bovine fetal serum, 1% L-glutamine, and 0.3% sodium hydrogen carbonate.
(§4) • (a) Thymidine kinase-positive (TK⁺) strain OKA & YS • (b) Thymidine kinase-deficient (TK⁻) strain YS/R & 07/1
(§5) Cells cultured on a 96-well microtiter plate are inoculated with the virus at an input of 20 plaque formation units (PFU). The cultured cells are incubated at 37°C for 2 hours. Subsequently, remaining virus is removed, and the incubated cells are again cultured in a MEM medium to which are added the test compound, 10% inactivated bovine fetal serum, 1% L-glutamine, and 0.3% sodium hydrogen carbonate in duplicate. After five days culture, the microtiter plate is fixed by ethanol, stained by Giemsa staining method, and microscopically observed for measurement of number of plaques formed. The results are indicated by IC₅₀ (i.e., concentration at which the plaque formation by virus is inhibited by 50%.

The test system of a further data set is TK⁻VZV 07/1 strain. The description is as above. It counts as cell-based, Varicella-zoster virus (VZV). The note with it: Human alphaherpesvirus 3, HEL, 120 h, read-out: Antiviral Activity IC₅₀ (µg/mL). As for the experimental part:
as §1, §2, §3, §4, §5

In a further data set the test system is TK⁺VZV YS strain. Described as above. The note with it: Human alphaherpesvirus 3, HEL, 120 h, read-out: Antiviral Activity IC₅₀ (µg/mL). It counts as cell-based, Varicella-zoster virus (VZV). On the procedure:
as §1, §2, §3, §4, §5

The test system of another data set is TK⁻VZV YS/R strain. The data set is described as above. It counts as cell-based, Varicella-zoster virus (VZV). The following applies: Human alphaherpesvirus 3, HEL, 120 h, read-out: Antiviral Activity IC₅₀ (µg/mL). On the procedure: as §1, §2, §3, §4, §5
A short description of data set [3]: Assay for cytotoxicity (cell growth, Coulter Counter). It counts as cell-based. The note with it: human; HEL cells; 3 days incubation; cell growth inhibited by 50%; read-out: Cytotoxicity CC₅₀. On the procedure:
as §2, §3
HEL cellls of 3 x 10³ cells/well are seeded into a 96 well microtiter plate and allowed to proliferate in a MEM medium containing 10% inactivated bovine fetal serum at 37°C for 24 hours. Subsequently, the medium is changed into a MEM medium containing different concentrations of the tested compound, and then the incubation is continued for another 3 days. When monolayer cells are grown to 70%, number of cells is countered by Coulter Counter. The cytotoxicity is indicated by CC₅₀ (i.e., concentration at which the cell growth is inhibited by 50%.).

Structures are written as SMILES. Values after ≈ are worked out from the molar mass of the structure shown. Where only a bound is given, the exact number is not on record here.

Turning to `Nc1nc2c(ncn2COCCO)c(=O)[nH]1` [Acyclovir], the “concentration showing inhibitory effect” value in data set [1] and in data set [2] was “less than 0.05 µL/mL” each time. Besides, the “effectiveness to cytomegalovirus (CMV)” value with cytomegalovirus (CMV) is on record as “not effective”.
`Nc1ncnc2c1ncn2[C@@H]1O[C@H](COC2(c3ccccc3)c3ccccc3Oc3ccccc32)[C@@H](OC2(c3ccccc3)c3ccccc3Oc3ccccc32)[C@H]1OC1CCCCO1` (some centres unmarked) [Example 2, 2'-O-Tetrahydropyranyl-3',5'-O-di(9-phenylxanthenyl)adenosine]: the IC50 came to 2 µg/mL (≈ 2.31 µM) with TK⁺VZV OKA strain, 0.8 µg/mL (≈ 0.926 µM) in the data set with TK⁻VZV 07/1 strain, 1 µg/mL (≈ 1.16 µM) with TK⁺VZV YS strain and 2 µg/mL (≈ 2.31 µM) in the data set with TK⁻VZV YS/R strain. Also, the CC50 at 72 h in data set [3] was over 50 µg/mL.
